Entries after “also recorded” stand apart in the source; their conditions may differ.
Experiments:
[1] = parameters: method as in PMID 29876538; conditions: acids such as TFA or HCl; cited from earlier work
From the text: The Methyl Red (MR) quencher was incorporated by coupling Fmoc-Lys(MR)-OH[20] onto a Rink-amide functionalised polystyrene resin (0.7 mmol/g), followed by the substrate sequence, using DIC and Oxyma as the coupling combination. The use of Fmoc-Lys(MR)-OH as a building block avoided the need for orthogonal deprotection on the resin[27],[28]. A bis-ethylene glycol spacer was introduced as the last amino acid before the fluorophore to increase hydrophilicity and promote aqueous solubility of the probe. The BODIPY (1,3,5,7-tetramethyl-8-phenyl-4,4-difluoroboradiazaindacene) fluorophore chosen as p ...

[2] = cited from earlier work
From the text: The new probe designed here was FRET-based, with a BODIPY fluorophore at the N-terminus, while the C-terminal Gln was replaced with a Lys residue functionalised with a quencher (Methyl Red, λmax 500 nm)[20].

human cathepsin D = conditions: cited from earlier work
From the text: Herein, we report the design and synthesis of a fluorogenic probe, based on a specific substrate for CatD, which provides an OFF→ON signal upon activation with good signal amplification. […] When choosing a substrate to build an optical probe to be used in cells and potentially in vivo, control of cross-reactivities is vital and it is important to design a specific substrate that is not ...

[3] = system: CatD activity in human monocyte-derived macrophages (MDM); test: Confocal imaging of CatD activity in monocyte-derived macrophages; type: cell-based; conditions: Pepstatin A 20 μM, S. pneumoniae MOI 10:1, CatD-P3 10 μM
Experimental: Confocal fluorescence microscopy (λex 488, λem 512 nm) images of the detection of CatD activity in monocyte-derived macrophages. […] Mock infected macrophages (no bacteria) were used as a control (left panel). […] At 10 h the cells were washed, fixed in 2% paraformaldehyde and cell nuclei were counter-stained with DAPI (λex 405, λem 461 nm).
Human MDM were matured in 24-well Corning tissue culture plates over 14 days from Peripheral Blood Mononuclear cells obtained healthy volunteers by informed written consent, under ethical approval 21-EMREC-041. Following maturation, the MDM were removed from wells by treatment with Accutase (BioLegend) and re-seeded onto iBidi 8-well chamber slides. […] Following fixation, cells were washed again with 3 × PBS, with DAPI (0.1 µg/mL) added in the 2nd PBS wash for 10 min.
In these experiments, macrophages were incubated for 6 h in the presence or absence (Mock)
(20 μM) was added aoer 4 h. At 10 h the cells were washed, ﬁxed in 2% paraformaldehyde and cell nuclei
were counter-stained with DAPI (λex 405, λem 461 nm).

CC1=CC(C)=[N+]2C1=C(c1ccccc1)c1c(C)cc(C)n1[B-]2(F)F [BODIPY, 1,3,5,7-tetramethyl-8-phenyl-4,4-difluoroboradiazaindacene]
stability to acids [1]: not stable to acids

CC1=CC(C)=[N+]2C1=C(c1ccc(C(=O)ON3C(=O)CCC3=O)cc1)c1c(C)cc(C)n1[B-]2(F)F [compound 2]
fluorescence quantum yield Φ [2]: 0.6 | pH sensitivity of fluorescence [2]: pH insensitive

Ala-Ile-Ala-Phe↑Phe-Ser-Arg-Gln [kallistatin, natural CatD substrate kallistatin, from which Pimenta et al. derived the substrate]
Km (human cathepsin D): 0.27 µM | kcat (human cathepsin D): 16.25 s⁻¹

Pepstatin A
effect of Pepstatin A on CatD-P3 fluorescence in infected macrophages [3]: a decrease in the fluorescence signal; also recorded: prevented CatD-P3 activation resulting in reduced/no green fluorescence; also recorded: marked decrease in fluorescent signal

Source: paper PMC10622513, “A fluorogenic, peptide-based probe for the detection of Cathepsin D in macrophages” (Communications Chemistry, 2023)
